Assay [1] has as its target T1, E. coli ITRS (isoleucyl-tRNA synthetase) (Escherichia coli, UniProt P00956).
T1 construct: endogenous in cells; enzyme partially purified in house
Kind of assay: 3H-isoleucine-based radiolabelled (standard radiometric) assay. In kind it is biochemical. Conditions: for IC50: standard 3H-isoleucine radiometric assay, 10 μM isoleucine, 1 mM ATP, 37° C., read-out: Concentration giving 50% inhibition (I50); for Mode of inhibition: with respect to the amino acid substrate, Compound 1 at 0, 0.25 μM and 1.0 μM with varying 3H-isoleucine up to 100 μM. As to the method:
2. Measurement of ITRS Activity using a ^3 H-Isoleucine-Based Radiolabelled Assay
The activity of ITRS during fractionation was monitored using conditions based on the method described by Steinmetz and Weil (7), and as described below. Stock reagents used in the method are as follows:
(§1) Prepared as described above. The specific activity of the enzyme used in the present example was approximately 145 nM of product formed/minute/mg, and was about 5%-10% active. The enzyme was diluted as appropriate. It will be appreciated that the enzyme amounts in the assay can be adjusted according to the purity of the enzyme used.
(§2) The assay mixture for a final volume of 200 μl was composed of:
The standard assay (in 200 μl) was carried out in quadruplicate in Eppendorf microcentrifuge tubes. The ingredients were preincubated for 2-3 minutes at 37° C., and the reaction started by addition of approximately 20 μl of the appropriately diluted enzyme extract as described above.
The final reaction contained reagents in the following concentrations:
0.1% bovine serum albumin
10 μM Isoleucine containing ^3 H-Ile
The assay was incubated at 37° C. for 20 minutes, and stopped by addition of 50 μl 20% TCA, and the tubes placed on ice.
200 μl of the reaction mixture was pipetted onto 1.5 cm^2 cellulose 3MM filters. The filters were washed (in groups of 4) as follows: 1×10% TCA, 2×5% TCA, and 2×ethanol using fresh wash medium for each set of replicates to avoid cross contamination. The dried filters were placed in 20 ml scintillation vials and the radioactivity counted in 15 ml Optiphase.
The inhibition constants of two compounds were measured and the results compared with the values obtained using the standard ^3 H-isoleucine assay.

Assay [2] has as its target T1, E. coli ITRS (isoleucyl-tRNA synthetase). Kind of assay: Colorimetric assay based on valine as substrate (valine-based assay of the invention). Format: biochemical. Conditions: 15 mM valine, 0.75 mM ATP, 37° C., read-out: Concentration giving 50% inhibition (I50). As to the method: 2. Measurement of ITRS activity using a Colorimetric Assay based on using Valine as Substrate
Incubations were set up in quadruplicate (as above) with a final volume of 200 μl as described below. Stock reagents used in the method were as follows:
as §1, §2
The standard assay (in 200 μl) was carried out in quadruplicate in Eppendorf microcentrifuge tubes. The ingredients were pre-incubated for 2-3 minutes at 37° C. and the reaction started by addition of 20 μl of appropriately diluted enzyme extract (as described above).
Thus the final reaction contained reagents in the following concentrations:
0.12 mg of mixed tRNA species from E. coli (as described above) HPLC purified from […] available from by Sigma (UK) Ltd 1 unit/μl of inorganic pyrophosphatase and
an appropriate concentration of ITRS (for example […] of the enzyme as described above).
The samples were incubated at 37° C. for 20-60 minutes. […] The optical absorbance is then measured at a wavelength of 630 nm using a spectrophotometer.

T1 sequence (P00956 whole entry): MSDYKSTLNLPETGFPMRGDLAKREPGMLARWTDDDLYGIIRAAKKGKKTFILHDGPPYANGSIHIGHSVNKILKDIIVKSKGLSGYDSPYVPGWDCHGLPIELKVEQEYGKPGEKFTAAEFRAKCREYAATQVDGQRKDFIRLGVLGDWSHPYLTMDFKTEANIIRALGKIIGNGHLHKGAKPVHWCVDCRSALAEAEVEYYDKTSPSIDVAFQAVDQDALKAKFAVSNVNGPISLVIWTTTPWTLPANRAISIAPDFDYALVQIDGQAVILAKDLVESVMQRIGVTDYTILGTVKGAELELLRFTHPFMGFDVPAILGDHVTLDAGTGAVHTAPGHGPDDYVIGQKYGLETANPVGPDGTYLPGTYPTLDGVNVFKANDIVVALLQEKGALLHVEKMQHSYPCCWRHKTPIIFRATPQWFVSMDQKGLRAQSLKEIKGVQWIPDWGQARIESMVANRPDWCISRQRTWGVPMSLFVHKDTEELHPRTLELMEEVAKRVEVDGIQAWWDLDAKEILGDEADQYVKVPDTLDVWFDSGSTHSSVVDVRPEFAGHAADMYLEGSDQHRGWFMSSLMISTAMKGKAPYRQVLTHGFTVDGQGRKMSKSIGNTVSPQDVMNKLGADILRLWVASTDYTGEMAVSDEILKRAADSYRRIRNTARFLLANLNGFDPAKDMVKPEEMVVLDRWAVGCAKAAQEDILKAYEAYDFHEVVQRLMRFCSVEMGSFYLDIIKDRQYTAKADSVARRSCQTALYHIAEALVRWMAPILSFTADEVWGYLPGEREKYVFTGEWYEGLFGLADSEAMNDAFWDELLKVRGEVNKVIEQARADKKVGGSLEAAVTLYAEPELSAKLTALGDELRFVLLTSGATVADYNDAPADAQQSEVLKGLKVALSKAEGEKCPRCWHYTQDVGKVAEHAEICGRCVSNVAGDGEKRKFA

Consider `C=COCCOC(=O)C=C(C)CC1OCC(CC2OC2C(C)C(C)O)C(O)C1O` (stereo not shown) [Compound 2], for which, in assay [1], the IC50 is 2.3 nM and the Mode of inhibition entry is given as “competitive with the amino acid”. In assay [2], the IC50 amounted to 38 nM.

Turning to `CC(=O)C(C)C1OC1CC1COC(CC(C)=CC(=O)O)C(O)C1O` (stereo not shown) [Compound 1], the IC50 is 109 nM in assay [1] and 2000 nM in assay [2]. Besides, the figures for the Mode of inhibition entry in assay [1] and in assay [1] (listed as compound 1) were “competitive with respect to isoleucine” and “competitive with the amino acid”, respectively.
